{"source": "patent US20060069132A1", "about": "“Azolecarboxamide herbicides” (priority 2004, published 2006)", "key": {"[1]": {"system": "woolly cupgrass", "test": "Test C pre-/postemergence herbicide test", "format": "in vivo, Eriochloa villosa", "details": "preemergence", "how_it_was_run": "(§1)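 Visual ratings on a 0–100 scale (100 = complete control) made versus untreated controls after 12 to 14 greenhouse days. Test chemicals, formulated in surfactant-containing non-phytotoxic solvent, applied preemergence to planted seeds or postemergence to 1- to 4-leaf plants (2 to 18 cm).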"}, "[2]": {"system": "johnsongrass", "test": "Test C pre-/postemergence herbicide test", "format": "in vivo, Sorghum halepense", "details": "preemergence", "how_it_was_run": "as §1"}, "[3]": {"system": "lambsquarters", "test": "Test C pre-/postemergence herbicide test", "format": "in vivo, Chenopodium album", "details": "preemergence", "how_it_was_run": "as §1"}, "[4]": {"system": "yellow nutsedge", "test": "Test C pre-/postemergence herbicide test", "format": "in vivo, Cyperus esculentus", "details": "preemergence", "how_it_was_run": "as §1"}, "[5]": {"system": "barnyardgrass", "test": "Test C flooded paddy test", "format": "in vivo, Echinochloa crus-galli", "how_it_was_run": "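Injury scored visually against controls on a 0 (no effect) to 100 (complete control) scale, 12 to 14 days after treatment in greenhouse. Flooded paddy plants treated at 2-leaf stage; postemergence plants at 1- to 4-leaf stage, 2 to 18 cm tall.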"}, "[6]": {"system": "large crabgrass", "test": "Test A pre-/postemergence herbicide test", "format": "in vivo, Digitaria sanguinalis", "how_it_was_run": "(§2)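 Visual injury scores on a 0–100 scale (100 = complete control) taken about ten days post-treatment in greenhouse against untreated controls; dash means no result. Treatments: preemergence soil spray and postemergence spray to runoff on one- to two-leaf plants 2 to 10 cm tall, surfactant-containing formulation.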"}, "[7]": {"system": "giant foxtail", "test": "Test A pre-/postemergence herbicide test", "format": "in vivo, Setaria faberi", "how_it_was_run": "as §2"}, "[8]": {"system": "redroot pigweed", "test": "Test A pre-/postemergence herbicide test", "format": "in vivo, Amaranthus retroflexus", "how_it_was_run": "as §2"}, "[9]": {"details": "500 g ai/ha, scale 0 to 100 (0 no effect, 100 complete control), visual, 12 to 14 days"}, "[10]": {"details": "Postemergence, 500 g ai/ha, 0 to 100 scale, 0 no effect, 100 complete control"}, "[11]": {"details": "Postemergence, 2000 g ai/ha, 0 to 100 scale, 0 no effect, 100 complete control"}, "[12]": {"details": "Preemergence, 2000 g ai/ha, visual rating, 0 to 100 scale (0 no effect, 100 complete control)"}, "[13]": {"details": "preemergence, 500 g ai/ha, visual injury, 0 to 100 scale (0 no effect, 100 complete control)"}, "[14]": {"details": "Preemergence, 500 g ai/ha, visual rating, 0 to 100 scale (0 no effect, 100 complete control)"}, "[15]": {"details": "Preemergence, 2000 g ai/ha, 0 to 100 scale, 0 no effect, 100 complete control"}, "[16]": {"details": "125 g ai/ha, scale 0 (no effect) to 100 (complete control), visual, 12 to 14 days"}, "[17]": {"details": "250 g ai/ha, scale 0 to 100 (0 no effect, 100 complete control), visual, 12 to 14 days"}}, "data": [{"smiles": "CCC1=NN(C(C)(C)C)CC1C(=O)Nc1cc(C(=O)N2CCCC2)ccc1F", "note": "(racemic) [Compound 341]", "values": [{"measurement": "Plant response rating, Cupgrass, Woolly", "setting": "[1]; 62 g ai/ha, scale 0 to 100", "value": 80}, {"measurement": "Plant response rating (0 = no effect, 100 = complete control), Cupgrass, Woolly", "setting": "[1]; 125 g ai/ha", "value": 80}, {"measurement": "Plant response rating, Cupgrass, Woolly", "setting": "[1]; 250 g ai/ha, scale 0-100", "value": 100}, {"measurement": "Plant response rating, Cupgrass, Woolly", "setting": "[1]; [9]", "value": 100}, {"measurement": "Plant response rating, Johnsongrass", "setting": "[2]; 62 g ai/ha, scale 0 to 100", "value": 15}, {"measurement": "Plant response rating (0 = no effect, 100 = complete control), Johnsongrass", "setting": "[2]; 125 g ai/ha", "value": 85}, {"measurement": "Plant response rating, Johnsongrass", "setting": "[2]; 250 g ai/ha, scale 0-100", "value": 100}, {"measurement": "Plant response rating, Johnsongrass", "setting": "[2]; [9]", "value": 100}, {"measurement": "Plant response rating, Lambsquarters", "setting": "[3]; 62 g ai/ha, scale 0 to 100", "value": 100}, {"measurement": "Plant response rating (0 = no effect, 100 = complete control), Lambsquarters", "setting": "[3]; 125 g ai/ha", "value": 100}, {"measurement": "Plant response rating, Lambsquarters", "setting": "[3]; 250 g ai/ha, scale 0-100", "value": 100}, {"measurement": "Plant response rating, Lambsquarters", "setting": "[3]; [9]", "value": 100}, {"measurement": "Plant response rating, Nutsedge, Yellow", "setting": "[4]; 62 g ai/ha, scale 0 to 100", "value": 0}, {"measurement": "Plant response rating (0 = no effect, 100 = complete control), Nutsedge, Yellow", "setting": "[4]; 125 g ai/ha", "value": 0}, {"measurement": "Plant response rating, Nutsedge, Yellow", "setting": "[4]; 250 g ai/ha, scale 0-100", "value": 30}, {"measurement": "Plant response rating, Nutsedge, Yellow", "setting": "[4]; [9]", "value": 60}, {"measurement": "Barnyardgrass plant response rating", "setting": "[5]; 62 g ai/ha, scale 0 to 100 (0 no effect, 100 complete control)", "value": 30}, {"measurement": "Barnyardgrass plant response rating", "setting": "[5]; 125 g ai/ha, scale 0 to 100 (0 no effect, 100 complete control)", "value": 30}, {"measurement": "Barnyardgrass plant response rating", "setting": "[5]; 250 g ai/ha, scale of 0 to 100, 0 is no effect, 100 is complete control", "value": 50}, {"measurement": "Plant response rating, Barnyardgrass", "setting": "[5]; 500 g ai/ha, visual rating after 12 to 14 days, scale 0 to 100 (0 no effect, 100 complete control)", "value": 60}]}, {"smiles": "CCc1nn(C(C)(C)C)nc1C(=O)Nc1cccc(C(=O)NC2CC2)c1", "note": "[Compound 417]", "values": [{"measurement": "Crabgrass, Large plant response rating", "setting": "[6]; [10]", "value": 30}, {"measurement": "Plant response rating, Crabgrass, Large", "setting": "[6]; [11]", "value": 85}, {"measurement": "Crabgrass, Large plant response rating", "setting": "[6]; [12]", "value": 95}, {"measurement": "Crabgrass, Large plant response rating", "setting": "[6]; [13]", "value": 75}, {"measurement": "Foxtail, Giant plant response rating", "setting": "[7]; [10]", "value": 75}, {"measurement": "Plant response rating, Foxtail, Giant", "setting": "[7]; [11]", "value": 85}, {"measurement": "Foxtail, Giant plant response rating", "setting": "[7]; [12]", "value": 100}, {"measurement": "Foxtail, Giant plant response rating", "setting": "[7]; [13]", "value": 90}, {"measurement": "Pigweed plant response rating", "setting": "[8]; [10]", "value": 100}, {"measurement": "Plant response rating, Pigweed", "setting": "[8]; [11]", "value": 100}, {"measurement": "Pigweed plant response rating", "setting": "[8]; [12]", "value": 100}, {"measurement": "Pigweed plant response rating", "setting": "[8]; [13]", "value": 95}, {"measurement": "Plant response rating, Cupgrass, Woolly", "setting": "[1]; 62 g ai/ha, scale 0 to 100", "value": 0}, {"measurement": "Plant response rating (0 = no effect, 100 = complete control), Cupgrass, Woolly", "setting": "[1]; 125 g ai/ha", "value": 20}, {"measurement": "Plant response rating, Cupgrass, Woolly", "setting": "[1]; 250 g ai/ha, scale 0-100", "value": 65}, {"measurement": "Plant response rating, Cupgrass, Woolly", "setting": "[1]; [9]", "value": 85}, {"measurement": "Plant response rating, Johnsongrass", "setting": "[2]; 62 g ai/ha, scale 0 to 100", "value": 100}, {"measurement": "Plant response rating (0 = no effect, 100 = complete control), Johnsongrass", "setting": "[2]; 125 g ai/ha", "value": 100}, {"measurement": "Plant response rating, Johnsongrass", "setting": "[2]; 250 g ai/ha, scale 0-100", "value": 100}, {"measurement": "Plant response rating, Johnsongrass", "setting": "[2]; [9]", "value": 100}, {"measurement": "Plant response rating, Lambsquarters", "setting": "[3]; 62 g ai/ha, scale 0 to 100", "value": 95}, {"measurement": "Plant response rating (0 = no effect, 100 = complete control), Lambsquarters", "setting": "[3]; 125 g ai/ha", "value": 100}, {"measurement": "Plant response rating, Lambsquarters", "setting": "[3]; 250 g ai/ha, scale 0-100", "value": 100}, {"measurement": "Plant response rating, Lambsquarters", "setting": "[3]; [9]", "value": 100}, {"measurement": "Plant response rating, Nutsedge, Yellow", "setting": "[4]; 62 g ai/ha, scale 0 to 100", "value": 0}, {"measurement": "Plant response rating (0 = no effect, 100 = complete control), Nutsedge, Yellow", "setting": "[4]; 125 g ai/ha", "value": 0}, {"measurement": "Plant response rating, Nutsedge, Yellow", "setting": "[4]; [9]", "value": 0}]}, {"smiles": "CCCCn1nc(C(C)(C)C)cc1C(=O)Nc1cccc(C(=O)NCC)c1", "note": "[Compound 41]", "values": [{"measurement": "Plant response rating, Crabgrass, Large", "setting": "[6]; [10]", "value": 20}, {"measurement": "Plant response rating, Crabgrass, Large", "setting": "[6]; [11]", "value": 60}, {"measurement": "Crabgrass, Large plant response rating", "setting": "[6]; [14]", "value": 40}, {"measurement": "Crabgrass, Large plant response rating", "setting": "[6]; [15]", "value": 80}, {"measurement": "Plant response rating, Foxtail, Giant", "setting": "[7]; [10]", "value": 20}, {"measurement": "Plant response rating, Foxtail, Giant", "setting": "[7]; [11]", "value": 35}, {"measurement": "Foxtail, Giant plant response rating", "setting": "[7]; [14]", "value": 30}, {"measurement": "Foxtail, Giant plant response rating", "setting": "[7]; [15]", "value": 70}, {"measurement": "Plant response rating, Pigweed", "setting": "[8]; [10]", "value": 40}, {"measurement": "Plant response rating, Pigweed", "setting": "[8]; [11]", "value": 60}, {"measurement": "Pigweed plant response rating", "setting": "[8]; [14]", "value": 65}, {"measurement": "Pigweed plant response rating", "setting": "[8]; [15]", "value": 85}, {"measurement": "Plant response rating, Cupgrass, Woolly", "setting": "[1]; 31 g ai/ha, scale 0 to 100", "value": 0}, {"measurement": "Plant response rating (0 = no effect, 100 = complete control), Cupgrass, Woolly", "setting": "[1]; 62 g ai/ha", "value": 0}, {"measurement": "Plant response rating, Cupgrass, Woolly", "setting": "[1]; [16]", "value": 0}, {"measurement": "Plant response rating, Cupgrass, Woolly", "setting": "[1]; [17]", "value": 30}, {"measurement": "Plant response rating, Johnsongrass", "setting": "[2]; 31 g ai/ha, scale 0 to 100", "value": 0}, {"measurement": "Plant response rating (0 = no effect, 100 = complete control), Johnsongrass", "setting": "[2]; 62 g ai/ha", "value": 0}, {"measurement": "Plant response rating, Johnsongrass", "setting": "[2]; [17]", "value": 20}, {"measurement": "Plant response rating, Lambsquarters", "setting": "[3]; 31 g ai/ha, scale 0 to 100", "value": 0}, {"measurement": "Plant response rating (0 = no effect, 100 = complete control), Lambsquarters", "setting": "[3]; 62 g ai/ha", "value": 50}, {"measurement": "Plant response rating, Lambsquarters", "setting": "[3]; [16]", "value": 90}, {"measurement": "Plant response rating, Lambsquarters", "setting": "[3]; [17]", "value": 100}, {"measurement": "Plant response rating, Nutsedge, Yellow", "setting": "[4]; 31 g ai/ha, scale 0 to 100", "value": 0}, {"measurement": "Plant response rating (0 = no effect, 100 = complete control), Nutsedge, Yellow", "setting": "[4]; 62 g ai/ha", "value": 0}, {"measurement": "Plant response rating, Nutsedge, Yellow", "setting": "[4]; [16]", "value": 0}, {"measurement": "Plant response rating, Nutsedge, Yellow", "setting": "[4]; [17]", "value": 0}]}]}
